Like-named read-outs stand apart in the source and are kept apart here.
How the values were obtained:
[1] = test system: MDBK cells; assay: Cytotoxicity assay (cell viability, crystal violet staining); type: cell-based, Bos taurus
Description: (§1) MDBK cells (Bos taurus kidney, ATCC CCL-22) were purchased from ATCC and grown in Dulbecso's modified Eagle medium (DMEM) supplemented with 10% fetal bovine serum and antibiotics under 5% CO2 at 37°C. For infections, cells were cultivated in DMEM supplemented with 2% Horse serum and antibiotics under 5% CO2 at 37°C.
(§2) Cell viability assays were performed on confluent cell cultures in 96 well plates (~15,000 cells per well). For each compound, cells were treated with serial dilutions of the compound in quadruplicates and incubated at 37°C for 3 days. Then, cell viability was measured using crystal violet staining. Briefly, cells were fixed with 10% formaldehyde, stained with crystal violet solution (20% Ethanol, 0.1% Crystal Violet), and after washing, the absorbance at 595 nm was recorded for each well in a spectrophotometer. Assays were conducted at least in duplicates, and the cytotoxic concentration 50 (CC50) was estimated by a nonlinear regression fitting of five data points as the compound concentration necessary to reduce cell viability by 50% compared to control non-treated cells.

[2] = test system: BVDV; set-up: method as in Pascual et al. (2018); conditions: MDBK cells infected with cpBVDV/Npro GFP; ref Pascual et al. (2018); cited from earlier work
[3] = test system: MDBK cells; set-up: method as in Pascual et al. (2018); conditions: ref Pascual et al. (2018), cited from earlier work
[4] = test system: BVDV cell entry; set-up: method as in Pascual et al., 2018; conditions: previously shown; ref Pascual et al., 2018; cited from earlier work
[5] = Cytotoxicity assay (cell viability, crystal violet staining); type: cell-based, Bos taurus; conditions: cattle (Bos taurus), MDBK cells, 3 days at 37°C, mean and SD of at least two independent experiments
Description: as §1, §2

[6] = test system: BVDV; assay: Reporter-based assay for antiviral activity (cpBVDV/Npro GFP, flow cytometry); type: cell-based, Bovine viral diarrhea virus; conditions: read-out: IC50 BVDV
Description: Antiviral activity was evaluated in a reporter-based assay using a recombinant virus expressing GFP, cpBVDV/Npro GFP (Pascual et al., [2018]). MDBK cells were seeded onto 24 well plates, infected with cpBVDV/Npro GFP at a multiplicity of infection of 0.1 in the presence of increasing concentrations of compounds. At 48 h post-infection cells were thoroughly washed, lifted with trypsin 0.05% and fixed using 4% paraformaldehyde in PBS. The fluorescence signal was measured using a flow cytometer (CyFlow® Space, Partec) at a detection spectrum of 488 nm. Data were analyzed in the FlowJo 7.6.2 software package. The inhibitory concentrations 50 (IC50s) for the compounds tested in the assay were calculated from curves constructed by plotting the percentage of infected cells versus the concentration of compound as the compound concentration necessary to reduce the number of infected cells by 50% compared to control non-treated cells.
First, we assayed selected compounds for cytotoxicity in cultured cells. […] The remainder of the compounds were evaluated for antiviral activity in a reporter-based assay using a recombinant BVDV virus carrying GFP on its genome to infect MDBK cells (Pascual et al., [2018]). Expression of GFP induced by BVDV infection was measured 2 days after infection using flow cytometry. Inhibition of BVDV infection was assessed by comparing the number of GFP positive cells in non-treated control cells and in cells treated with increasing amounts of compound.

[7] = MDBK cells (bovine kidney, ATCC CCL-22)
[8] = Bovine viral diarrhea virus isolates and strains, MDBK, 48 h

4-chloro-N-(isoxazol-5-yl)benzamide [Compound 15]
CC50 [1]: > 50 µM

OCCCc1nc2ccccc2[nH]1 [BI03]
IC50 [2]: 17.6 ± 6.4 µM
cytotoxicity at 50 μM [3]: no cytotoxicity was detected
CC50 [3]: > 200 µM
block of BVDV cell entry [4]: specifically block BVDV cell entry

c1ccc(CN2CCN(c3cccc4[nH]cnc34)CC2)cc1 [Compound 1]
CC50 at 3 days [5, 7]: > 50 µM

C1=C(c2nc3ccccc3o2)CCN1Cc1ncc[nH]1 [Compound 2]
IC50 [6, 8]: 44.3 ± 10.3 µM
CC50 at 3 days [5, 7]: > 50 µM

NNC(=O)c1ccccc1NC(=O)c1ccccc1 [Compound 3]
CC50 at 3 days [5]: > 50 µM

C[C@@H](Sc1nnc(-c2cccnc2)n1N)C(=O)Nc1cccc(C(F)(F)F)c1 [Compound 4]
IC50 [6, 8]: 30.1 ± 2.9 µM
CC50 at 3 days [5, 7]: > 50 µM
cytotoxicity at 50 μM ([1]; MDBK cells, 50 μM): no cytotoxicity was detected

Cc1cccc(Cl)c1NC(=N)NC(=N)N [Compound 5]
CC50 at 3 days [5, 7]: > 50 µM

O=C(NNC(=O)c1cc2cc(OC(F)(F)F)ccc2[nH]1)c1cccc(C(F)(F)F)c1 [Compound 6]
CC50 at 3 days [5, 7]: 7.2 ± 1.3 µM
cytotoxicity in cultured cells ([1]; MDBK cells, compound discarded from further analysis): high toxicity

O=C(NCc1ccc2c(c1)OCO2)Oc1ccccc1 [Compound 7]
CC50 at 3 days [5]: > 50 µM

CCOC(=O)c1ccc2nc(NC(=O)c3cccc(Cl)c3)sc2c1 [Compound 8]
IC50 [6, 8]: 20.2 ± 3.6 µM
CC50 at 3 days [5, 7]: > 50 µM
cytotoxicity at 50 μM ([1]; MDBK cells, 50 μM): no cytotoxicity was detected

CS/C(=N\S(=O)(=O)c1ccc(-n2nc(C(F)(F)F)cc2-c2cccs2)cc1)N1CCCC1 [Compound 9]
CC50 at 3 days [5, 7]: > 50 µM

COc1ccccc1NC(=O)Cc1nnc(SCC(=O)Nc2cc(Cl)ccc2C)n1C [Compound 10]
CC50 at 3 days [5, 7]: > 50 µM

N=C(N)Nc1nc2ccccc2[nH]1 [Compound 12, 2-Guanidinobenzimidazole]
IC50 [6, 8]: 44.4 ± 11.5 µM
CC50 at 3 days [5, 7]: > 50 µM

O=C(OCCO)c1cccc2c1-c1ccccc1C2=O [Compound 13]
CC50 at 3 days [5, 7]: 61.5 ± 1.4 µM

Cc1cc(NC(=O)CCC(=O)O)no1 [Compound 14, 4-((5-methylisoxazol-3-yl)amino)-4-oxobutanoic acid]
CC50 at 3 days [5, 7]: > 50 µM

O=C(Nc1ccc(OC(F)(F)F)cc1)c1ccco1 [Compound 16, N-(4-(trifluoromethoxy)phenyl)furan-2-carboxamide]
CC50 at 3 days [5, 7]: 49.8 ± 1.5 µM

Cc1ccc(CNC(=N)NC(=N)N)cc1 [Compound 17]
CC50 at 3 days [5, 7]: > 50 µM

COc1ccc(C(=O)Nc2cc(-c3ccccc3)sc2C(N)=O)cc1OC [PTC12]
IC50 [2]: 0.3 ± 0.1 µM
cytotoxicity at 50 μM [3]: no cytotoxicity was detected
CC50 [3]: 89.5 ± 1.1 µM
block of BVDV cell entry [4]: specifically block BVDV cell entry

(E)-2-(4-(dimethylamino)benzylidene)-N-(4-(trifluoromethyl)phenyl)hydrazinecarbothioamide [Compound 11]
IC50 ([6]; MDBK cells infected with cpBVDV/Npro GFP, MOI 0.1, 48 h post-infection, mean and SD of at least two independent experiments, NA = assayed but not active): 23.9 ± 7.9 µM
CC50 [1]: > 50 µM
cytotoxicity at 50 μM [1]: no cytotoxicity was detected
